The record followed here is patent publication US10787423B2, “Piperazine and piperidine derivatives, their synthesis and use thereof in inhibiting VDAC oligomerization, apoptosis and mitochondria dysfunction” (THE NATIONAL INSTITUTE FOR BIOTECHNOLOGY IN THE NEGEV LTD., priority 2015, dated 2020).

Where two headings read alike, the source gives them in different places.

Series [1] concerns HeLa cells. The series can be described thus: Selenite-induced cell death in HeLa cells, PI staining and flow cytometry. The settings on record: 22 h with selenite 8 μM and increasing concentrations. Format: cell-based. The method, then: (§1) Cells, e.g. HeLa cells (2×10^5), untreated or treated with apoptosis-inducing reagents, were analyzed for apoptotic cell death using PI, annexin V-FITC and flow cytometer analysis. Cells were collected (1500×g for 10 min), washed, and resuspended in 200 μl binding buffer (10 mM HEPES/NaOH, pH 7.4, 140 mM NaCl, and 2.5 mM CaCl2). Annexin V-FITC was added according to the recommended Protocol (Enzo Life Sciences, Switzerland), and the cells were incubated in the dark for 15 min. Cells were then washed with binding buffer and resuspended in 200 μl binding buffer, to which PI was added immediately before flow cytometry analysis. At least 10,000 events were collected, recorded on a dot plot, and analyzed by the FACSCalibur™ flow cytometer software (BD Biosciences, Franklin Lakes, N.J.).
HeLa cells were incubated with varying concentrations (2-20 μM) of racemic compound of Formula 1 (VBIT-4) and of the enantiomers of compound of Formula 1 (VBIT-4-1 and VBIT-4-2) for 1 hour, and then with or without selenite (25 μM, 3 hours). Cells were harvested and assayed for apoptotic cell death, using PI staining and FACS analysis. The results shown in the FIG. 14b correspond to means±SD (n=3).
Cells (2.5 mg/ml) were washed with and resuspended in PBS, pH 8.3 and incubated with membrane-permeable cross-linker EGS (250 μM) at 30° C. for 15 min and then subjected to SDS-PAGE and immunoblotting using anti-VDAC1 antibodies. Several anti-VDAC1 antibody-labeled protein bands were obtained upon exposure to the apoptosis stimuli that are correspond to VDAC1 dimers, trimers, tetramers and multimers. Cell death as induced by selenite and inhibited by the compound of Formula 3 (VBIT-12) or compound of Formula 11 (DIV00781) is shown (FIG. 21B), with closed circles corresponding to the compound of Formula 3 and open circles corresponding to the compound of Formula 11. Cell death was analyzed using propidium iodide (PI) staining and flow cytometry.
(A flow cytometer gives signals particle by particle.)

Series [2] concerns Cyto c release from mitochondria. The series can be described thus: Selenite-induced Cytochrome c release from mitochondria in HEK-293 cells. It counts as cell-based. The note with it: Homo sapiens, HEK293, compound 2 h then selenite 15 μM 4 h, means±SD (n=3). As for the experimental part: One of the ways cell apoptosis is activated is by release of Cytochrome c (Cyto c) from the mitochondria into cytosol. […] Cyto c released to the cytosol may be analyzed by immunoblotting using Cyto c-specific antibodies.
Cells treated with apoptosis inducers in the absence or presence of the tested compounds were harvested, washed twice with PBS, pH 7.4 and gently resuspended at 6 mg/ml in ice-cold buffer (100 mM KCl, 2.5 mM MgCl2, 250 mM sucrose, 20 mM HEPES/KOH pH 7.5, 0.2 mM EDTA, 1 mM dithiothreitol, 1 μg/ml leupeptin, […] and 0.1 mM PMSF) containing 0.025% digitonin and incubated for 10 min on ice. Samples were centrifuged at 10,000×g (relative centrifugal force—RCF) at 4° C. for 5 min to obtain supernatants (cytosolic extracts free of mitochondria) and pellet (fraction that contains mitochondria). Cytochrome c released to the cytosol was analyzed by immunoblotting using Cytochrome c-specific antibodies. Anti-VDAC1 and anti-GAPDH antibodies were used to verify that the cytosolic extracts are mitochondria-free.
c. Cytochrome c (Cyto c) release was determined as described above in Methods (Cytochrome c release from mitochondria). Briefly, to assess Cyto c release, cells were incubated on ice for 10 min with 0.025% digitonin, centrifuged, and the pellet (mitochondria—Mito) and supernatants (cytosol—Cytos) were subjected to SDS-PAGE and immunoblotting, using anti-Cyto c, antibodies. Anti-VDAC1 and anti-GAPDH antibodies were used to verify that the cytosolic extracts are mitochondria-free. The results of Cyto c release from the mitochondria as induced by selenite are presented as immunoblots, with the cytosolic and mitochondrial fractions confirmed by immunoblotting of GAPDH (glyceraldehyde-3-phosphate dehydrogenase) and VDAC1, respectively, in the FIG. 15d. The data are presented as percent inhibition. The results shown correspond to means±SD (n=3). The closed circle (●) indicates VBIT-4 (compound of Formula 1), the open circle (◯) indicates compound of Formula 10 (AKOS-022), and an open square (□) indicates VBIT-3 (compound of Formula 2).
d. […]

The target of series [3] is VDAC1 (Homo sapiens, UniProt P21796). Kind of series: Selenite-induced VDAC1 oligomerization by EGS cross-linking and immunoblot in HEK-293 cells (Method B). Further details: endogenous in cells; host or cells: HEK-293. Format: cell-based. The method, then: Appropriate test cells (2.5-3 mg/ml) in PBS, were harvested after the treatment and incubated with the cross-linking reagent EGS at a ratio of 100-300 μM for sample of 2-3 mg protein/ml concentration (pH 8.3) for 15 minutes. Protein concentration was determined according to Lowry assay. Samples (60-80 μg protein) were subjected to SDS-PAGE by a standard technique and immunoblotting was performed using anti-VDAC1 antibodies. Gels were electro-transferred onto nitrocellulose membranes for immuno-staining. The membranes were incubated with a blocking solution containing 5% non-fat dry milk and 0.1% Tween-20 in Tris-buffered saline, followed by incubation with monoclonal anti-VDAC1, anti-Cytochrome c, anti-AIF or anti-actin antibodies. Membranes were then incubated with HRP-conjugated anti-mouse or anti-rabbit IgG (1:10,000), serving as secondary antibodies. Antibody labeling was detected by chemiluminescence. To detect VDAC1 oligomers, membranes were treated with 0.1 M glycine, pH 2.0, prior to immunoblotting and washed several times with 0.1% Tween-20 in Tris-buffered saline. Quantitative analysis of immuno-reactive VDAC1 dimer, trimer and multimer bands was performed using FUSION-FX (Vilber Lourmat, France).
The closed circle (●) indicates VBIT-4 (compound of Formula 1), the open circle (◯) indicates compound of Formula 10, and an open square (□) indicates VBIT-3 (compound of Formula 2).
(§2) d. IC50 values of the tested compounds were derived from the obtained data. The results shown correspond to means±SD (n=3).
(In general: In western blotting, separated proteins are transferred to a membrane and probed.)

The subject of series [4] is HEK-293 cells. Kind of series: Selenite-induced apoptosis, annexin V-FITC/PI staining and FACS, HEK-293 cells. The note with it: Homo sapiens, HEK293, compound 2 h then selenite 15 μM 4 h, means±SD (n=3). It counts as cell-based. The method, then: The ability of the compounds of general Formulae (I), (Ia), (Ib), (Ic), (Id), (II) and (IIa) to inhibit apoptosis may be analyzed by annexin-V/propidium iodide (PI) staining and flow cytometry.
as §1
b. Additionally, the inhibition of selenite-induced apoptosis by the compounds as analyzed using annexin V-FITC/PI staining and FACS, presented in the FIG. 15c.
as §2

Series [5] in a line: Brain penetration after oral gavage, HPLC/MS of brain extracts. It counts as in vivo, C57BL/6 mice. The note with it: for concentration at 12 h / concentration at 24 h: C57BL/6, mouse, brain, oral, 50 mg/kg, mouse, read-out: Compounds in brain extract. The method, then:
C57BL/6 mice ([…]) were used. The animals received treatments with either free compounds of Formulae 1 and 10, or encapsulated compounds, prepared according to the Examples 16 and 17. Doses as indicated in the Table 4 below were administered in phosphate-buffered saline (PBS) through an oral gavage. After 12 hours and 24 hours, randomly selected mice from each group were sacrificed, their brains collected and stored in −80° C. The concentrations of the compounds in the tissues were determined by HPLC/MS analysis.
Tissue samples were homogenized in phosphate-buffered saline solution, then diluted with acetonitrile to 50% v/v, centrifuged at 10,000 g for 10 minutes, and supernatants were analyzed. The compounds concentrations in the brain extracts were determined from calibration curves. The results were the averaged from 2 mice for each treatment group/time point.

Series [6] in a line: IC50 for several activities / effective range (activity not specified). The note with it: quoted for comparison with brain levels.
The target of series [7] is T1, purified VDAC1 (Rattus norvegicus, UniProt Q9Z2L0).
T1 construct: rat liver mitochondria (5 mg/ml) in 10 mM Tris-HCl, pH 7.2, were incubated with 2% LDAO; from tissue; host or cells: rat liver mitochondria
The series can be described thus: Microscale thermophoresis (MST) binding to purified VDAC1. Background: Microscale thermophoresis detects binding through changes in fluorescence in a small temperature gradient.
Protocol: To obtain quantitative parameters of this interaction and derive a dissociation constant, e.g. a microscale thermophoresis (MST) interaction assay may be performed. In this manner, dissociation values are derived from the curves showing the affinity of the compounds of the invention to VDAC.
Briefly, rat liver mitochondria (5 mg/ml) in 10 mM Tris-HCl, pH 7.2, were incubated with 2% LDAO at 0° C. for 20 min, followed by centrifugation (30 min, 14,000 g) and the obtained supernatant was loaded onto a dry celite:hydroxyapatite (2:1) column. VDAC1 was eluted with a solution containing 2% LDAO, 10 mM Tris-HCl, pH 7.2, 50 mM NaCl, and 20 to 22 mM NaH2PO4, with VDAC1 detection by Coomassie blue staining. The VDAC1-containing fractions were dialyzed against 10 mM Tris-HCl, pH 7.2, and subjected to a second chromatography step on a carboxymethyl-cellulose (CMC) column from which VDAC1 was eluted with a solution containing 10 mM Tris-HCl, pH 7.2, 0.1% LDAO and 500 mM NaCl, detected as above. The VDAC1-containing fractions were collected and used for VDAC1 channel conductance and MST assays.
MST analysis was performed using a NanoTemper Monolith NT.115 apparatus. […]
Purified VDAC1 (133 nM), labeled using the NanoTemper fluorescent protein-labeling Kit BLUE (Nano Temper technologies, Munich, Germany), according to the manufactory instructions, was incubated with increasing concentrations of the following tested compounds: compound of Formula 10 (AKOS-022), compound of Formula 2 (VBIT-3), or racemic compound of Formula 1 (VBIT-4). After 20 min of incubation, the samples (3-5 μL) were loaded into MST-grade glass capillaries (Monolith NT Capillaries), and the thermophoresis process was measured using the Monolith-NT115 apparatus.
Fmax and Fmin represent the maximal and minimal fluorescence, respectively and F the fluorescence measured in the presence of the tested compound.
VDAC1 binding affinities of tested compounds were calculated from the MST measurements.

In series [8] the test system is SHSY5Y cells. Kind of series: 6-hydroxydopamine-induced cell toxicity, XTT cell viability. Format: cell-based. The note with it: Homo sapiens, SH-SY5Y, 24 h, read-out: concentration giving 50% decrease in cell survival. The method, then:
(§3) SHSY5Y (obtained from ATCC) were grown at 37° C. under an atmosphere of 95% air and 5% CO2 in DMEM medium supplemented with 10% fetal bovine serum, 2 mM L-glutamine, 1000 U/ml penicillin, and 1 mg/ml streptomycin until 60-70% of confluence. Further, the cells were incubated with increasing concentrations of 6-hydroxydopamine. After 24 hours, and cells viability was assayed using the XTT (2,3-bis-(2-methoxy-4-nitro-5-sulfophenyl)-2H-tetrazolium-5-carboxanilide) method, according to the supplier instructions. […] The 50% decrease in cell survival was obtained at about 50 μM of 6-hydroxydopamine.
(§4) Cell viability as assayed following 24 h incubation with different concentrations of 6-hydroxydopamine in the absence (closed squares (▪)) or in the presence of VBIT-12 (15 μM, closed circles (●)) is shown.
(§5) Similarly, cells that were incubated with increasing concentrations of VBIT-12 in presence of either 30 or 50 μM of 6-hydroxydopamine that decreased cell viability by […], respectively, remained viable after 24 hours of the incubation. Cells viability is charted in FIG. 24C versus the concentrations of VBIT-12. Closed squares (▪) indicate control group without 6-hydroxydopamine, open circles (◯) indicates cells' viability when exposed to 30 μM of the 6-hydroxydopamine, and closed circles (●) indicate cells viability at 50 μM of the 6-hydroxydopamine.

Experiment in series [9]: as above
It counts as cell-based. The note with it: human, 24 h, read-out: decrease in cell viability. The method, then:
as §3, §4, §5

Where [10] appears, read: 50 mg/kg in PLGA nanoparticles, oral gavage.
[11] abbreviates: 50 mg/kg oral gavage, free compound.

T1 sequence (Q9Z2L0 whole entry): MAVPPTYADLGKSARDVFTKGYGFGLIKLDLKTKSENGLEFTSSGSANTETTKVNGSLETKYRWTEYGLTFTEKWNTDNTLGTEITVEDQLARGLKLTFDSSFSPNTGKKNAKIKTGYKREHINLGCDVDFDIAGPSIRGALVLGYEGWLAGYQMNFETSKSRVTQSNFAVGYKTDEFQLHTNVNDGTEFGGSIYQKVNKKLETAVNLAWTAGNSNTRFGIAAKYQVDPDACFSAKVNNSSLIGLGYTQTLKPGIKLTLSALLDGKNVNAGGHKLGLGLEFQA
Sequence of VDAC1 (P21796 whole entry): as the sequence (Q9Z2L0 whole entry) above, with N55T, V129M, S160A, V227I counted along it

`O=C(O)CN1CN(c2ccccc2)C2(CCN(Cc3cccc4ccccc34)CC2)C1=O` [Formula 11]: in series [1], the “cell death as induced by selenite” value is “inhibited”.

By IC50 is commonly meant the concentration that inhibits the measured activity by half. With `O=C1CC(N2CCC(Nc3ccc(OC(F)(F)F)cc3)CC2)C(=O)N1c1ccc(Cl)cc1` (stereo not drawn) [Formula 10], the 50% inhibitory concentration (IC50) in [2] is 3.6 ± 0.4 µM; in [3], 3.3 ± 0.18 µM; in [4], 3.4 ± 0.2 µM; in [6], 1 µM. The values for the concentration at 12 h in series [5] (setting [10]) and in [5] (setting [11]) were 4.36 ± 0.148 µM and 4.2 ± 0.714 µM, respectively. The concentration at 24 h in series [5] (setting [10]) turned out to be 2.8 ± 1.19 µM; in series [5] (setting [11]) it was 1.24 ± 0.23 µM. The brain penetration entry in series [5] (given orally, in solution or encapsulated in PLGA nano-particles) is given as “reached the brain”. For the same compound, the Kd in [7] was determined as 15.4 ± 2.9 µM.

For the compound `O=C1CC(N2CCN(c3ccc(OC(F)(F)F)cc3)CC2)C(=O)N1c1ccc(Cl)cc1` (stereo not drawn) [Formula 2, 1-(4-chlorophenyl)-3-(4-(4-(trifluoromethoxy)phenyl)piperazin-1-yl)pyrrolidine-2,5-dione], the IC50 in series [2] worked out at 6.6 ± 1.03 µM; in series [3] (HEK-293 cells, compound 2 h then selenite 15 μM 4 h, means±SD (n=3), read-out: VDAC1 oligomerization IC50) it was 8.8 ± 0.56 µM; in series [4], 7.5 ± 0.27 µM. The Kd in [7] (MST, purified VDAC1 133 nM, 20 min incubation, means±SD (n=3), read-out: VDAC1 binding affinities) worked out at 31.3 ± 1.7 µM.

As for `NCCc1cc(O)c(O)cc1O` [6-hydroxydopamine, reference compound], in series [8], the 6-hydroxydopamine concentration giving 50% decrease in cell survival was roughly 50 µM. Moreover, in series [9] (30 μM 6-hydroxydopamine), the cytotoxicity at 24 h, 30 μM amounted to 90%. The cytotoxicity at 24 h, 50 μM in series [9] (50 μM 6-hydroxydopamine) was 95%.
